Measurements as given in US6420572B1, “Synthetic methods for preparation of protected proanthocyanidin(s)” (Mars, Incorporated, priority 1997, dated 2002).
Entries after “also recorded” stand apart in the source; their conditions may differ. Where two headings read alike, the source gives them in different places.

Test system: human breast cancer cell lines (MDA MB 231, MDA MB 435, MCF-7)
Test: Cytotoxic activity: cell proliferation (crystal violet staining) of human breast cancer cell lines
Experimental: All human tumor cell lines were obtained from the American Type Culture Collection. Cells were grown as monolayers in IMEM containing 10% fetal bovine serum without antibiotics. The cells were maintained in a humidified, 5% CO2 atmosphere at 37° C.
After trypsinization, the cells were counted and adjusted to a concentration of 1,000-2,000 cells per 100 mL. Cell proliferation was determined by plating the cells (1,000-2,000 cells/well) in a 96 well microtiter plate. After addition of 100 μL cells per well, the cells were allowed to attach for 24 hours. […] The polyphenols were dissolved in media at a 2 fold concentration and 100 μL of each solution was added in triplicate wells. On consecutive days, the plates were stained with 50 μL crystal violet (2.5 g crystal violet dissolved in 125 mL methanol, 375 mL water), for 15 min. The stain was removed and the plate was gently immersed into cold water to remove excess stain. The washings were repeated two more times, and the plates allowed to dry. The remaining stain was solubilized by adding 100 μL of 0.1 M sodium citrate/50% ethanol to each well. After solubilization, the number of cells were quantitated on an ELISA plate reader at 540 nm (reference filter at 410 nm).
Error bars represent +/− standard deviation of three replicate measurements.

[1] = breast cancer cell lines investigated, four days, various μg/mL concentrations, FIG. 1(a)-(d)

Row | SMILES | cytotoxicity (cancer cell line growth at the end of four days as percent growth of the control) | cytotoxicity (cancer cell line growth at the end of four days as percent growth of the control) [1] | antineoplastic activity against several human breast cancer cell lines (comparison in words) (in vitro assessment of Example 25)
1 | Oc1cc(O)c2c(c1)O[C@H](c1ccc(O)c(O)c1)[C@H](O)[C@H]2c1c(O)cc(O)c2c1O[C@H](c1ccc(O)c(O)c1)[C@H](O)C2 [synthetic epicatechin dimer, EC-(4β→8)-EC] | no cytotoxicity | – | –
2 | O=C(OC1Cc2c(O)cc(O)c(C3c4c(O)cc(O)c(C5c6c(O)cc(O)cc6OC(c6ccc(O)c(O)c6)C5OC(=O)c5cc(O)c(O)c(O)c5)c4OC(c4ccc(O)c(O)c4)C3OC(=O)c3cc(O)c(O)c(O)c3)c2OC1c1ccc(O)c(O)c1)c1cc(O)c(O)c(O)c1 (stereo not drawn) [synthetic epicatechin trimer trisgallate, [EC-3-O-galloyl-(4β→8)]2-EC-3-O-gallate] | – | cytotoxic effect equivalent to the pentamer and/or epigallocatechin gallate | activity equivalent to the pentamer; also recorded: greater antineoplastic activity when compared to the underivatized dimer and trimer
3 | Oc1cc(O)c2c(c1)O[C@H](c1ccc(O)c(O)c1)[C@H](O)C2 [monomer (epicatechin), epicatechin, reference compound] | – | no cytotoxicity | –
